According to patent US11236079B2, “Morpholine derivates as inhibitors of Vps34” (Neuropore Therapies, Inc., priority 2018, dated 2022):

Tests used:
PI3KC3 (hVPS34) kinase = PI3KC3 (hVPS34) kinase (Homo sapiens (Human), UniProt Q8NEB9); test: PI3KC3 (hVPS34) kinase assay, ADP-Glo luminescence detection; format: biochemical; details: PI:PS lipid substrate, 60 min at 30° C., read-out: VPS34 IC50
Description: The PI3KC3 (hVPS34) kinase reactions utilize ATP and produce ADP as a byproduct. The ADP production is quantified by ADP-Glo luminescence detection. The PI3KC3 (hVPS34) kinase assay was performed by Reaction Biology Corp. (Malvern, Pa.).
This was a 3-step reaction: First, the kinase reaction with lipid substrate was carried out in the presence of ATP. The reaction was then quenched, and the remaining ATP depleted with ADP-Glo™ reagent. Finally, the ADP was converted to ATP, which is measured using a luciferase/luciferin reaction. The luminescence was converted into μM ADP production based on ADP standard curves. The nonlinear regression to obtain the standard curve and IC50 values were performed using Graphpad Prism software.
The substrate (Phosphatidylinositol (PI): Phosphatidylserine (PS)) was added to freshly prepared reaction buffer (40 mM Tris-HCl (pH7.5), 3 μM Orthovanadate, 20 mM MgCl2, 2 mM DTT, 0.05% CHAPS, 1% DMSO). The PI3KC3 (hVPS34) kinase was delivered into the substrate solution with gentle mixing. Compounds were delivered in 100% DMSO into the kinase reaction mixture by Acoustic technology (Echo550; nanoliter range). The reaction was incubated for 20 min at room temperature. ATP was delivered into the reaction mixture to initiate the reaction. After incubating the mixture for 60 min at 30° C., the reaction was quenched with ADP-Glo reagent (Promega ADP Glo Kinase Assay kit #V9102) and incubated for 40 min at room temperature. Detection mixture (Promega ADP Glo Kinase Assay kit #V9102) was added and the reaction was incubated for 30 minutes. Luminescence was measured.

PI3Kα = PI3Kα (Homo sapiens (Human), UniProt P42336); test: PI3Kα inhibition, ATP to ADP conversion by ADP-Glo kinase activity assay; format: biochemical; details: 25 μM PIP2:PS, 60 μM ATP, reaction time 30 minutes
PI3Kα, sequence (P42336 whole entry): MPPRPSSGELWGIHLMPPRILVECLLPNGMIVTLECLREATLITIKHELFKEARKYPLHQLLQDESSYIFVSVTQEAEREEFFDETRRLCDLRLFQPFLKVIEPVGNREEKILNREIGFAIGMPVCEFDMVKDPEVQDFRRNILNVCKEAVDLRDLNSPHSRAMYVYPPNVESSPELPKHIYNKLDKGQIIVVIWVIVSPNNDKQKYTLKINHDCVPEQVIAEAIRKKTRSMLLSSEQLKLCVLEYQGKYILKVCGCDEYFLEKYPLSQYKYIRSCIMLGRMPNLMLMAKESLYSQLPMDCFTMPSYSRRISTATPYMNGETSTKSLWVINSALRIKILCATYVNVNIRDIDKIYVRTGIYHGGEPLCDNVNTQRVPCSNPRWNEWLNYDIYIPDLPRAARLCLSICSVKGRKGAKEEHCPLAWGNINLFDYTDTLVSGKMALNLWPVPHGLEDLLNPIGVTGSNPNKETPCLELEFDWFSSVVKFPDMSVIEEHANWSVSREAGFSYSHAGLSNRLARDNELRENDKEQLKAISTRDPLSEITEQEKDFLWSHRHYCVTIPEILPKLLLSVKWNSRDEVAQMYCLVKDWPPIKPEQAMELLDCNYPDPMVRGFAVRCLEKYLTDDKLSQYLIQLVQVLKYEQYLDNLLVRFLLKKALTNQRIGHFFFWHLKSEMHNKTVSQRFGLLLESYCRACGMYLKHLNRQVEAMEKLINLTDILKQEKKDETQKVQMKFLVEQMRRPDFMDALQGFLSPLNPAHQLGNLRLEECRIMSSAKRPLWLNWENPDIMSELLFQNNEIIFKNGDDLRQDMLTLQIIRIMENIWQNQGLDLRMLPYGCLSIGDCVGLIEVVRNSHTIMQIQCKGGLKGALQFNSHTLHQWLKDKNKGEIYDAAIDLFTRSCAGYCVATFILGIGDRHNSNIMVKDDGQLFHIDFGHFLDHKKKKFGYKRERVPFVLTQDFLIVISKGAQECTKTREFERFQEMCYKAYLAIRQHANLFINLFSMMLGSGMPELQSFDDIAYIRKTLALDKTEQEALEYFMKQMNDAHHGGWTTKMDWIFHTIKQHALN
PI3Kα, sequence (P27986 whole entry partner): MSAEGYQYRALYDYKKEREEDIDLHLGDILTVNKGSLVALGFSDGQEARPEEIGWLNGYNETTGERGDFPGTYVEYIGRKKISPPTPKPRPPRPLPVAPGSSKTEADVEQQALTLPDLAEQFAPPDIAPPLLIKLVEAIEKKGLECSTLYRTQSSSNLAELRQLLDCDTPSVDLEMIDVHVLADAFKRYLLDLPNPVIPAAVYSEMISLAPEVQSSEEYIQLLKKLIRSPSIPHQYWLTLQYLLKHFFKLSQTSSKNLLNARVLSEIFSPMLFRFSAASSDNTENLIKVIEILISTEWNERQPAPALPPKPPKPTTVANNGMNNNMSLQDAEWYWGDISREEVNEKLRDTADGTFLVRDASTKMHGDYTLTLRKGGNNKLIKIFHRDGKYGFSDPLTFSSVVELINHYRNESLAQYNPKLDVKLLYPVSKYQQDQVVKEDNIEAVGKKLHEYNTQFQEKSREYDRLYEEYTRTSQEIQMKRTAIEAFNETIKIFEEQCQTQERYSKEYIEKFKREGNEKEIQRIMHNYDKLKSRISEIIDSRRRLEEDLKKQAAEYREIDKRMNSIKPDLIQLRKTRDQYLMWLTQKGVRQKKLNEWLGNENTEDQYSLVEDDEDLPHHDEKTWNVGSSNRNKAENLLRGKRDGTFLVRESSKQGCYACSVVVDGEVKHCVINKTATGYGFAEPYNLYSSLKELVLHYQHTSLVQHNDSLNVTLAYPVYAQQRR
Description: Inhibition of PI3Kα—Quantification of ATP to ADP conversion as a measure of PI3Kα activity. Active PI3Kα (Life Technologies), in the presence or absence of PI3Kα inhibitor, was reacted with PIP2:PS (Life Technologies), a substrate specifically optimized for use with Class I PI3 kinases, and ultrapure ATP (Promega). The conversion of ATP to ADP by PI3Kα was measured as luminescence signal via Promega ADP-Glo kinase activity assay. Assay was validated using published PI3Kα inhibitors LY294002, PI-103, BYL719, and GDC0198 as well as a DMSO vehicle control.
Compounds were prepared at 100× final concentration using a 12-point, 1:3 serial-dilution in DMSO, with DMSO control as the 12th point. Compound was then diluted in HEPES buffer (25 mM HEPES pH 7.5, 1 mM EGTA, 0.3% CHAPS) prior to addition to PI3Kα. Active PI3Kα diluted to 0.24 ng/μL (1.1 nM) in (50 mM HEPES pH 7.5, 6 mM MgCl2, 1 mM EGTA, 200 mM NaCl, 0.03% CHAPS, 8 mM DTT) was incubated with compound for 0 hr and 3 hr prior to the start of the reaction. 25 μM PIP2:PS and 60 μM ATP were diluted from stock solution (25 mM HEPES pH 7.5, 1 mM EGTA, 0.3% CHAPS) and added to initiate the PI3Kα reaction. Reaction time was 30 minutes. ATP to ADP conversion was measured in Luminescence Counts on DTX880 Plate Reader (Beckman Coulter). The IC50 of the compounds were reported using the GraphPad Prism software. Analytical method was non-linear regression, 4-parameter curve fit with bottom fit to validated PI3Kα inhibitor reference controls and no top fit (floating top).

PI3KC3 (hVPS34) kinase, sequence (Q8NEB9 whole entry): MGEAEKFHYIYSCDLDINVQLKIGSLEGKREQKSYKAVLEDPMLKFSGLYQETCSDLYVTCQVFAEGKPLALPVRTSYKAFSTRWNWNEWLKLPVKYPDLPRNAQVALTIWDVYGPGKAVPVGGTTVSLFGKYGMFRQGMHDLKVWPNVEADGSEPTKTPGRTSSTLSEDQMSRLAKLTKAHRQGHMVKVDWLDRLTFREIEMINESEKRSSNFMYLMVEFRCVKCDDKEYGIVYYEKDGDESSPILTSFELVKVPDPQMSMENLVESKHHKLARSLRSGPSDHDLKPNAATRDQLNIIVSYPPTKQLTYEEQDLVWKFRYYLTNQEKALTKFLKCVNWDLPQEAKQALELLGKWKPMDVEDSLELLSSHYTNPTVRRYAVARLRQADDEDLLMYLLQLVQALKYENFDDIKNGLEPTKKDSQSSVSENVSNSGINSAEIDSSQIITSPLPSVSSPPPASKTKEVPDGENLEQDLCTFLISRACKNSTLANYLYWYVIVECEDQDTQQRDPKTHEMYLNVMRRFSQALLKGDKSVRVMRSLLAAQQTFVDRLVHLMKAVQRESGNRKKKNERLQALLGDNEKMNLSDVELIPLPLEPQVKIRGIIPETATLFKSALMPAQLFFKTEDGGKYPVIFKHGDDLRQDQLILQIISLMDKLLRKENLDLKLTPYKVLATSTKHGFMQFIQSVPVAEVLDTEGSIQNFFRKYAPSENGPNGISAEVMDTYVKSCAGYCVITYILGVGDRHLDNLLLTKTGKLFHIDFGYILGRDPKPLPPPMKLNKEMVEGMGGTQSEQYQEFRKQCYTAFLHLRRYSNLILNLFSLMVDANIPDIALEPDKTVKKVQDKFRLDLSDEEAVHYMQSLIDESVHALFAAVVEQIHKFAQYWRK

IC50 (PI3KC3 (hVPS34) kinase) [nM]	IC50 (PI3Kα) [nM]	Compound
3800	750	Nc1ncc(-c2cc(N3CCOCC3)cc(S(=O)(=O)[C@@H]3CCOC3)c2)s1 [Example 1, (R)-5-(3-morpholino-5-((tetrahydrofuran-3-yl)sulfonyl)phenyl)thiazol-2-amine]
2100	740	Nc1nc(C(F)(F)F)c(-c2cc(N3CCOCC3)cc(S(=O)(=O)[C@@H]3CCOC3)c2)s1 [Example 2, (R)-5-(3-morpholino-5-((tetrahydrofuran-3-yl)sulfonyl)phenyl)-4-(trifluoromethyl)thiazol-2-amine]
1600	2200	Nc1nnc(-c2cc(N3CCOCC3)cc(S(=O)(=O)c3ccccc3)c2)s1 [Example 3, 5-(3-morpholino-5-(phenylsulfonyl)phenyl)-1,3,4-thiadiazol-2-amine]
2200	11200	Nc1nsc(-c2cc(N3CCOCC3)cc(S(=O)(=O)c3ccccc3)c2)n1 [Example 4, 5-(3-morpholino-5-(phenylsulfonyl)phenyl)-1,2,4-thiadiazol-3-amine]
81	502	Nc1ncc(-c2cc(S(=O)(=O)c3ccccc3)cc(N3CCOCC3)n2)s1 [Example 5, 5-(6-morpholino-4-(phenylsulfonyl)pyridin-2-yl)thiazol-2-amine]
287	5240	Nc1nc(C(F)(F)F)c(-c2cc(S(=O)(=O)c3ccccc3)cc(N3CCOCC3)n2)s1 [Example 6, 5-(6-morpholino-4-(phenylsulfonyl)pyridin-2-yl)-4-(trifluoromethyl)thiazol-2-amine]
19	2300	Cc1nc(N)sc1-c1cc(S(=O)(=O)c2ccccc2)cc(N2CCOCC2)n1 [Example 7, 4-methyl-5-(6-morpholino-4-(phenylsulfonyl)pyridin-2-yl)thiazol-2-amine]
150	3420	Nc1ncc(-c2cc(Oc3ccccc3)cc(N3CCOCC3)n2)s1 [Example 8, 5-(6-morpholino-4-phenoxypyridin-2-yl)thiazol-2-amine]
